Experimental data from US7851493B2, “Phenyl-1,2,4-oxadiazolone derivatives with phenyl group, processes for their preparation and their use as pharmaceuticals” (Sanofi-Aventis, priority 2005, dated 2010).

Columns and labels:
human PPARalpha = target: T1, human PPARalpha (Homo sapiens, UniProt Q07869); assay: Cellular PPARalpha assay (human GAL4 luciferase reporter, stably transfected HEK cell line); type: cell-based
T1 construct: amino acids S167-Y468; expressed in transfected cells; plasmid pcDNA3
T1 sequence (Q07869 167-468): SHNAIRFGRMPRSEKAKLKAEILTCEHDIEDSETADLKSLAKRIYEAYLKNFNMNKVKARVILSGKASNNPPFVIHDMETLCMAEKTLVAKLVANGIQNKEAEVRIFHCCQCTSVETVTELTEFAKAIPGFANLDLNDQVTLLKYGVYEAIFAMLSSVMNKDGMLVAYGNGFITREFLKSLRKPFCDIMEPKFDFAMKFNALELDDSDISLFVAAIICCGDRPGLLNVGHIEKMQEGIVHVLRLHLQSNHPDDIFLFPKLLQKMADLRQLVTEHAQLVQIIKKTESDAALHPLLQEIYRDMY
Protocol: Determination of EC50 Values of PPAR Agonists in the Cellular PPARalpha Assay
(§1) The potency of substances which bind to human PPARalpha and activate it in an agonistic manner is analyzed using a stably transfected HEK cell line (HEK=human embryo kidney) which is referred to here as PPARalpha reporter cell line. It contains two genetic elements, a luciferase reporter element (pdeltaM-GAL4-Luc-Zeo) and a PPARalpha fusion protein (GR-GAL4-humanPPARalpha-LBD) which mediates expression of the luciferase reporter element depending on a PPARalpha ligand. The stably and constitutively expressed fusion protein GR-GAL4-humanPPARalpha-LBD binds in the cell nucleus of the PPARalpha reporter cell line via the GAL4 protein portion to the GAL4 DNA binding motifs 5′-upstream of the luciferase reporter element which is stably integrated in the genome of the cell line. There is only weak expression of the luciferase reporter gene in the absence of a PPARalpha ligand if fatty acid-depleted fetal calf serum (cs-FCS) is used in the assay. PPARalpha ligands bind and activate the PPARalpha fusion protein and thereby stimulate the expression of the luciferase reporter gene. The luciferase which is formed can be detected by means of chemiluminescence via an appropriate substrate.
Construction of the PPARalpha Reporter Cell Line
The PPARalpha reporter cell line was prepared in two stages. Firstly, the luciferase reporter element was constructed and stably transfected into HEK cells. For this purpose, five binding sites of the yeast transcription factor GAL4 (Accession #AF264724) were cloned in 5′-upstream of a 68 bp-long minimal MMTV promoter (Accession #V01175). The minimal MMTV promoter section contains a […] and a TATA element in order to enable efficient transcription by RNA polymerase II. The cloning and sequencing of the GAL4-MMTV construct took place in analogy to the description of Sambrook J. et al. (Molecular cloning, Cold Spring Harbor Laboratory Press, 1989). Then the complete Photinus pyralis gene (Accession #15077) was cloned in 3′-downstream of the GAL4-MMTV element. After sequencing, the luciferase reporter element consisting of five GAL4 binding sites, MMTV promoter and luciferase gene was recloned into a plasmid which confers zeocin resistance in order to obtain the plasmid pdeltaM-GAL4-Luc-Zeo. This vector was transfected into HEK cells in accordance with the statements in Ausubel, F. M. et al. (Current protocols in molecular biology, Vol. 1-3, John Wiley & Sons, Inc., 1995).
In a second step, the PPARalpha fusion protein (GR-GAL4-humanPPARalpha-LBD was introduced into the stable cell clone described. For this purpose, initially the cDNA coding for the N-terminal 76 amino acids of the glucocorticoid receptor (Accession #P04150) was linked to the cDNA section coding for amino acids 1-147 of the yeast transcription factor GAL4 (Accession #P04386). The cDNA of the ligand-binding domain of the human PPARalpha receptor (amino acids S167-Y468; Accession #S74349) was cloned in at the 3′-end of this GR-GAL4 construct. The fusion construct prepared in this way (GR-GAL4-humanPPARalpha-LBD) was recloned into the plasmid pcDNA3 (Invitrogen) in order to enable constitutive expression therein by the cytomegalovirus promoter. This plasmid was linearized with a restriction endonuclease and stably transfected into the previously described cell clone containing the luciferase reporter element. The finished PPARalpha reporter cell line which contains a luciferase reporter element and constitutively expresses the PPARalpha fusion protein (GR-GAL4-human PPARalpha-LBD) was isolated by selection with zeocin (0.5 mg/ml) and G418 (0.5 mg/ml).
The activity of PPARalpha agonists is determined in a 3-day assay, which is described below: […]

human PPARdelta = target: T2, human PPARdelta (Homo sapiens, UniProt Q03181); assay: Cellular PPARdelta assay (human GAL4 luciferase reporter, stably transfected HEK cell line); type: cell-based
T2 construct: amino acids S139-Y441; expressed in transfected cells; plasmid pcDNA3
T2 sequence (Q03181 139-441): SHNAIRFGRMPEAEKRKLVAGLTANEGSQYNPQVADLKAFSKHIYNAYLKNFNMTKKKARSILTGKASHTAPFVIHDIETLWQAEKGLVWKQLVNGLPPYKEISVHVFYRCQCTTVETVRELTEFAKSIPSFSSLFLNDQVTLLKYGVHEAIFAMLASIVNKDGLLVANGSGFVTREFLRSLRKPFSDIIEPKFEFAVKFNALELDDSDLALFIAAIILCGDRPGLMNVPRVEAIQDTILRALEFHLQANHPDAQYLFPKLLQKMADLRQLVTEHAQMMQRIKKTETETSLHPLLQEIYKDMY
Protocol: Determination of EC50 Values of PPAR Agonists in the Cellular PPARdelta Assay
as §1, with “PPARdelta” for “PPARalpha”, “In analogy to the assay described for PPARalpha, the PPARdelta reporter cell line also” for “It”, “(GR-GAL4-humanPPARdelta-LBD)” for “(GR-GAL4-humanPPARalpha-LBD)”, “GR-GAL4-humanPPARdelta-LBD” for “GR-GAL4-humanPPARalpha-LBD”, “little” for “weak”, “stimulate” for “stimulate the”
Construction of the PPARdelta Reporter Cell Line
The production of the stable PPARdelta reporter cell line is based on a stable HEK-cell clone which was stably transfected with a luciferase reporter element. This step was already described above in the section “construction of the PPARalpha reporter cell line”. In a second step, the PPARdelta fusion protein (GR-GAL4-humanPPARdelta-LBD was stably introduced into this cell clone. For this purpose, the cDNA coding for the N-terminal 76 amino acids of the glucocorticoid receptor (Accession #P04150) was linked to the cDNA section coding for amino acids 1-147 of the yeast transcription factor GAL4 (Accession #P04386). The cDNA of the ligand-binding domain of the human PPARdelta receptor (amino acids S139-Y441; Accession #L07592) was cloned in at the 3′-end of this GR-GAL4 construct. The fusion construct prepared in this way (GR-GAL4-humanPPARdelta-LBD) was recloned into the plasmid pcDNA3 (Invitrogen) in order to enable constitutive expression by the cytomegalovirus promoter. This plasmid was linearized with a restriction endonuclease and stably transfected into the previously described cell clone containing the luciferase reporter element. The resulting PPARdelta reporter cell line which contains a luciferase reporter element and constitutively expresses the PPARdelta fusion protein (GR-GAL4-human PPARdelta-LBD) was isolated by selection with zeocin (0.5 mg/ml) and G418 (0.5 mg/ml).
Assay Procedure and Evaluation
The activity of PPARdelta agonists is determined in a 3-day assay in exact analogy to the procedure already described for the PPARalpha reporter cell line except that the PPARdelta reporter cell line and a specific PPARdelta agonist was used as a standard to control test efficacy.

Row | SMILES | EC50 (human PPARalpha) [nM] | EC50 (human PPARdelta) [nM]
1 | COCCN(CCOC)Cc1nc(-c2ccc(C(F)(F)F)cc2)sc1COc1ccc(-c2noc(=O)[nH]2)c(Cl)c1 [Example 77, 3-{4-[4-{[Bis-(2-methoxy-ethyl)-amino]-methyl}-2-(4-trifluoromethyl-phenyl)-thiazol-5-ylmethoxy]-2-chloro-phenyl}-4H-[1,2,4]oxadiazol-5-one] | 530 | 3
2 | Cc1nc(COCc2ccccc2)oc1COc1ccc(-c2noc(=O)[nH]2)c(Cl)c1 [Example 56, 3-[4-(2-Benzyloxymethyl-4-methyl-oxazol-5-ylmethoxy)-2-chloro-phenyl]-4H-[1,2,4]oxadiazol-5-one] | 2190 | 358
3 | CN(CCO)Cc1nc(-c2ccc(C(F)(F)F)cc2)sc1COc1ccc(-c2noc(=O)[nH]2)c(F)c1 [Example 19, 3-{2-Fluoro-4-[4-{[(2-hydroxy-ethyl)-methyl-amino]-methyl}-2-(4-trifluoromethyl-phenyl)-thiazol-5-ylmethoxy]-phenyl}-4H-[1,2,4]oxadiazol-5-one] | 1190 | 171
4 | COc1cc(OCc2sc(-c3ccc(C(F)(F)F)cc3)nc2CCCS(C)(=O)=O)ccc1-c1noc(=O)[nH]1 [Example 102, 3-{4-[4-(3-Methanesulfonyl-propyl)-2-(4-trifluoromethyl-phenyl)-thiazol-5-ylmethoxy]-2-methoxy-phenyl}-4H-1,2,4-oxadiazol-5-one] | 1780 | 22
5 | COCc1nc(/C=C/c2ccc(OC)cc2)oc1COc1ccc(-c2noc(=O)[nH]2)c(Cl)c1 [Example 55, 3-(2-Chloro-4-[4-methoxymethyl-2-[2-(4-methoxy-phenyl)-vinyl]-oxazol-5-ylmethoxy]-phenyl)-4H-[1,2,4]oxadiazol-5-one] | 319 | 3
6 | COc1cc(OCc2sc(-c3ccc(C(F)(F)F)cc3)nc2CN2CCC(C(F)(F)F)C2)ccc1-c1noc(=O)[nH]1 (racemic) [Example 9, 3-{2-Methoxy-4-[2-(4-trifluoromethyl-phenyl)-4-(3-trifluoromethyl-pyrrolidin-1-ylmethyl)thiazol-5-ylmethoxy]-phenyl}-4H-[1,2,4]oxadiazol-5-one] | 729 | 56
7 | COc1cc(OCc2sc(-c3ccc(C(F)(F)F)cc3)nc2CN2CCC(C(F)(F)F)CC2)ccc1-c1noc(=O)[nH]1 [Example 1, 3-{2-Methoxy-4-[2-(4-trifluoromethyl-phenyl)-4-(4-trifluoromethyl-piperidin-1-ylmethyl)-thiazol-5-ylmethoxy]-phenyl}-4H-[1,2,4]oxadiazol-5-one] | 830 | 56
8 | O=c1[nH]c(-c2ccc(OCc3sc(-c4ccc(C(F)(F)F)cc4)nc3CN3CCC(C(F)(F)F)CC3)cc2OC(F)F)no1 [Example 94, 3-{2-Difluoromethoxy-4-[2-(4-trifluoromethyl-phenyl)-4-(4-trifluoromethyl-piperidin-1-ylmethyl)-thiazol-5-ylmethoxy]-phenyl}-4H-1,2,4-oxadiazol-5-one] | 664 | 18
9 | COc1cc(OCc2sc(-c3ccc(C(F)(F)F)cc3)nc2CNC2CC2)ccc1-c1noc(=O)[nH]1 [Example 15, 3-{4-[4-Cyclopropylaminomethyl-2-(4-trifluoromethyl-phenyl)-thiazol-5-ylmethoxy]-2-methoxy-phenyl}-4H-[1,2,4]oxadiazol-5-one] | > 10000 | 153
10 | COc1cc(OCc2sc(-c3ccc(C(F)(F)F)cc3)nc2CCCN2CCSCC2)ccc1-c1noc(=O)[nH]1 [Example 103, 3-{2-Methoxy-4-[4-(3-thiomorpholin-4-yl-propyl)-2-(4-trifluoromethyl-phenyl)-thiazol-5-ylmethoxy]-phenyl}-4H-1,2,4-oxadiazol-5-one] | 483 | 8
11 | Cc1cc(OCc2sc(-c3ccc(C(F)(F)F)cc3)nc2CNCCN2CCOCC2)ccc1-c1noc(=O)[nH]1 [Example 51, 3-{2-Methyl-4-[4-[(2-morpholin-4-yl-ethylamino)-methyl]-2-(4-trifluoromethyl-phenyl)-thiazol-5-ylmethoxy]-phenyl}-4H-[1,2,4]oxadiazol-5-one] | 1210 | 228
12 | CCCCc1nc(-c2ccc(C(F)(F)F)cc2)sc1COc1ccc(-c2noc(=O)[nH]2)c(C)n1 [Example 100, 3-{6-[4-Butyl-2-(4-trifluoromethyl-phenyl)-thiazol-5-ylmethoxy]-2-methyl-pyridin-3-yl}-4H-[1,2,4]oxadiazol-5-one] | 315 | 8
13 | O=c1[nH]c(-c2ccc(OCc3sc(-c4ccc(C(F)(F)F)cc4)nc3COCCC3CCCCC3)cc2Cl)no1 [Example 83, 3-{2-Chloro-4-[4-(2-cyclohexyl-ethoxymethyl)-2-(4-trifluoromethyl-phenyl)-thiazol-5-ylmethoxy]-phenyl}-4H-[1,2,4]oxadiazol-5-one] | 398 | 12
